In a melting point compilation (Tetko et al.; mined from patent text by program, amines drawn as free bases though some values may be those of a salt):

melting point [°C] | SMILES
196 | Cc1cc(-c2ccc(C(F)(F)F)cc2)cc(-c2ccnc(-c3cccc(NS(C)(=O)=O)c3)c2)n1
195 to 197 | COc1cc(C(=O)OC(C)(C)C)ccc1Cn1cc(CC(C)C(=O)O)c2ccc(C(=O)NCC3CCCC3)cc21 (stereo unspecified)
94 to 96 | CC(C)(C)OC(=O)N1CCC(c2ccc(COc3cccc([N+](=O)[O-])c3)nc2)CC1
240 to 241 | COC(=O)[C@]1(C)Cc2c([nH]c3ccc(Cl)cc23)[C@@H](c2cccc(O)c2)N1 (racemic)
124 to 127 | CC(=O)Nc1ccccc1C(=O)N1CC2CC2(c2ccccc2)C1 (stereo unspecified)
178 | N#Cc1c[nH]cc1-c1cccc(Cl)c1F
> 280 | O=[N+]([O-])C=Cc1c[nH]c2ccc(-c3ccc4[nH]cnc4c3)cc12
204 to 206 | CC(C)c1nc2c(nc1C(C)C)-c1c(c(-c3ccc(C(=O)O)cc3)nn1Cc1cccnc1)CC2
140 to 143 | CS(=O)(=O)CCNC(=O)c1cccc(-c2ccc3c(c2)C(Oc2ccc(Cl)cc2Cl)CC3)c1 (stereo unspecified)
228 to 230 | COc1cc2c(Nc3ccc(Sc4nccn4C)c(Cl)c3)c(C#N)cnc2cc1-c1ccc(CN2CCOCC2)c(CN2CCOCC2)c1
243 | Cc1cc(-c2cnn3c(C(F)(F)F)cc(-c4ccc(C(F)(F)F)cc4)nc23)ccn1
139 to 140 | COC(=O)c1oc2cc(OCc3nc(-c4ccccc4)oc3C)ccc2c1-c1ccccc1
> 280 | CCCn1c(=O)c2[nH]c(/C=C/c3ccc(OC)c4ccccc34)nc2n(CCC)c1=O
118 | Cc1cc(-n2cnnn2)cc2ccoc12
211 to 214 | COc1nc(-c2ccc(=O)n(C(C)C)n2)c(-c2ccccc2)nc1N
193 to 195 | CCOC(=O)c1cnn(C)c1C(=O)Nc1ccn2nc(N(C)C)nc2c1
64 to 66 | CCCCCCCCCCCCCCCCCCOc1cc(C(=O)OC)cc([N+](=O)[O-])c1
167 | N#Cc1ccc(C=CC(=O)N2CCc3c([nH]c4ccccc34)C2c2ccc3c(c2)OCO3)cc1 (stereo unspecified)
126 to 128 | Cc1cc(C)cc(S(=O)(=O)c2c(C(C)C)nc(C)n2C)c1
73 to 76 | CCNC(=O)c1ccccc1C(F)(F)F
188 to 192 | NC[C@@H]1C[C@@H](CC(=O)O)C(=O)N1CCCc1ccccc1
208 to 211 | CCCCOCC(CO)OCn1cnc2c(O)nc(N)nc21 (stereo unspecified)
181 to 185 | CCOC(CNC(=S)Nc1cccc2nc(C)ccc12)OCC
69 to 71 | C[Si](C)(C)OC(Cn1cncn1)(Cn1cncn1)c1ccc(F)cc1F

melting point [°C] | SMILES
205 to 210 | Nc1cc(N2CCN(C(=O)COc3cccc4ccccc34)CC2)nc(N)n1
166 to 167 | NCC(=O)N(Nc1nncc(-c2ccccc2)n1)C(=O)OCc1ccccc1
236 to 238 | CC(=O)Nc1nc(-c2ccc(F)cc2)c(-c2ccc(=O)n(C(C)C)n2)s1
153 to 154 | N#Cc1cccc(CSc2nnc(-c3ccnc(NC(=O)CCc4ccccc4)c3)o2)c1
96 to 100 | CC[C@H](C)[C@H](NC(=O)[C@H](Cc1ccc(O)cc1)NC(=O)OC(C)(C)C)C(=O)NCCCBr
122 to 125 | O=C(c1cc(F)ccc1C(F)(F)F)N1CCN(c2ccc(-c3ncc(-c4ccccc4)o3)nn2)CC1
108 to 109 | CC1CCCC=C1c1ccc(C(=O)N2Cc3cccn3Cc3ccccc32)cc1 (stereo unspecified)
125 to 127 | Cc1[nH]c(-c2ccccc2F)c(C)c1C#N
104 | COc1ccc(N=C(C#Cc2ccccc2)N2CCN(Cc3ccccc3)CC2)cc1
170 to 172 | Cc1nn(C)c2c(-c3ccc(OC(F)(F)F)cc3)nc(-c3ccc(F)cc3)nc12
106 to 107 | Cc1nc(CCOc2ccc(N)cc2)oc1-c1ccccc1
248 to 250 | CN(N=Cc1cnc[nH]1)C(=O)c1[nH]c2ccccc2c1-c1ccccc1
99 to 104 | Cc1cccc(S(=O)(=O)n2cccn2)c1C#N
310 to 312 | Cc1ccc(F)cc1C(=O)Nc1ccc(C(=O)N2CCc3cn[nH]c3-c3sccc32)c(Cl)c1
144 to 145 | COC(=O)Cc1cccc(CC(=O)OC)c1[N+](=O)[O-]
87.7 | Clc1ccc(C=Cc2ccccc2)cc1Cl
94 to 96 | Cc1c2c(c3ccccc3c1O)OCC2c1ccc(C(C)C)cc1 (stereo unspecified)
122 to 125 | CCCc1c(OCC(O)CS(=O)(=O)c2ccc(CC(=O)OC)c(Cl)c2Cl)ccc(C(C)=O)c1O (stereo unspecified)
241 | CCS(=O)(=O)c1ccc2cc(C(=O)O)ccc2c1
172 to 173 | O=C(O)CCC(=O)c1cc(Cl)ccc1O
> 250 | CC(C)(C)NC(=O)Nc1nc2nc(N)ncc2cc1-c1ccccc1
282 to 287 | O=[N+]([O-])c1ccc2c(c1)S(=O)(=O)c1cc([N+](=O)[O-])ccc1-2
163 to 164 | C=C(C(=O)c1ccc(C(=O)O)cc1)c1ccc(OC)c(-c2cccs2)c1
> 250 | Cn1c(N=C=O)c(-c2ccccc2)c2cc([N+](=O)[O-])ccc21

melting point [°C] | SMILES
191 | Cn1nc(-c2ccc(Cl)cc2)nc1-c1ccncc1
281 to 282 | O=C1CN(N=Cc2ncc(-c3ccc(F)cc3)o2)C(=O)N1
77 to 78 | Cc1ccc2c(c1)N=Cc1cccc3c1N2CC3
189 to 190 | COC(=O)c1ccc(/C=C\[C@@H]2C[C@@H](NS(=O)(=O)c3ccc(Cl)cc3)CN2)cc1
> 250 | CCC1(O)CC(=O)OCc2c1cc1n(c2=O)Cc2cc3c4c(c(F)cc3nc2-1)OCN(Cc1ccccc1)C4 (stereo unspecified)
106 to 107 | CC(=O)NC(=CBr)C(=O)OC(C)(C)C
213 to 216 | O=C1N(C(c2ccccc2)c2ccccc2)c2ccccc2C12COc1cc(F)c(F)cc12 (stereo unspecified)
85 to 92 | Cc1ccc(-c2ccccc2C(=O)O)cc1C(=O)NCC12CC3CC(CC(C3)C1)C2
125 to 136 | COc1cccc2cc(C(=O)N[C@@H](CC(N)=O)C(=O)N[C@@H](Cc3ccccc3)[C@H](O)C(=O)N3C[C@@H](Cl)C[C@H]3C(=O)NC(C)(C)C)oc12
93 | COC(=O)C(O)C(NC(=O)OC(C)(C)C)C1CC1 (stereo unspecified)
103 to 104 | CCOC(=O)c1cc2c(C)ccc3c2n1CCC3=O
145 to 146 | Brc1cc(Br)c(-c2ccccc2)nn1
195 to 196 | CC(C)(C)C(NC(=O)c1ccc(F)cc1)NC(=NC#N)Nc1cccnc1 (stereo unspecified)
121 to 122 | Cc1c(C)c2c(c(C)c1N)C(O)(c1ccc3ccccc3c1)C(C)(C)O2 (stereo unspecified)
142 to 143 | CSc1ccc(-c2nn(CC3CC3)c(=O)cc2-c2ccc(Cl)cc2)cc1
183 to 184 | CN1C(=O)c2ccccc2C(CCO)N1c1cccc([N+](=O)[O-])c1 (stereo unspecified)
262 to 263 | COc1cc2cc(C(=O)OC(C)(C)C)c(N)cc2cc1O
118 to 119 | C[C@H](NC(=O)OCc1ccccc1)C(=O)N1CCC[C@H]1C(=O)NC1CCCC1
177 to 179 | CC(C)=CCOc1ccc(C(=O)C=Cc2cccnc2)c(O)c1
97 to 100 | Cc1ccc(NC(=O)c2cccc(C(F)(F)F)c2)cc1-c1ccc2cnncc2c1
163 to 165 | COc1cccc(-c2nc(-c3ccccc3C=O)n[nH]2)c1
113 to 114 | CC(c1cccnc1)C(O)(Cn1cncn1)c1ccc(F)cc1F (stereo unspecified)
206 to 207 | CCCCc1ncc(/C(C)=C(\Cc2ccccc2)C(=O)O)n1Cc1ccccc1Cl
189 to 190 | CCOC(=O)C(=O)Nc1cc(C#N)cc(NC(=O)C(=O)OCC)c1

melting point [°C] | SMILES
156 to 157 | C=Cc1c(F)c(N2CC3CN(C)CC3C2)c(F)c2c1c(=O)c(C(=O)O)cn2C1CC1 (stereo unspecified)
82 | CCOC(=O)c1nn(Cc2ccc(Cl)cc2Cl)c(-c2ccc(Cl)cc2)c1C
60 | COC(=O)c1ccc(NC(C)=O)c(CO)c1
125 to 132 | FC(F)(F)c1ccc(NC(=S)Nc2cc(C(F)(F)F)nc(C(F)(F)F)c2)cc1
204 to 206 | COc1cc2ncc(C#N)c(Nc3cccc(C(C)=O)c3)c2cc1OC
70.1 to 71 | N#CCN(C1CC1)S(=O)(=O)Cc1cccc(C(F)(F)F)c1
146 to 147 | CCOc1ccccc1-c1nc2n(C3CCCC3)[nH]c(CC)c-2c(=O)n1
239 to 241 | NC(=O)c1csc(-c2cccc([N+](=O)[O-])c2)n1
243 | CC1(C)OC(=C(C#N)C#N)C(C#N)=C1C=Cc1cc2c3c(c1)CCCN3CCC2
64 to 66 | CC(C)COC(=O)[C@H](CC(=O)OCc1ccccc1)NC(=O)CCCCNC(=O)OC(C)(C)C
126 | C#CCN(Cc1cn(C(C)(C)C)nn1)Cc1cn(C(C)(C)C)nn1
118 to 120 | CCc1oc2ccccc2c1C(C)(C)C(N)=NO
94 to 96 | CCOn1c(C(F)(F)F)nc2c([N+](=O)[O-])cc(C(F)(F)F)cc21
124 to 125 | CCCn1nnc(NC(=O)C(c2ccccc2)c2ccccc2)n1
> 250 | Nc1cc(C[C@H](Nc2nc3ccc(Cl)cc3cc2C(=O)O)C(=O)O)ccc1Oc1nc2ccc(Cl)cc2cc1C(=O)O
203 | COc1ccc(S(=O)(=O)Nc2nc(-c3cccc([N+](=O)[O-])c3)c(CN(C)C)s2)cc1OC
240 to 241 | COc1cc(-c2cnc3[nH]cc(C(=O)C(C)(C)C)c3n2)cc(OC)c1OC
160 to 165 | CN(C)Cc1nc(C(=O)O)nn1-c1ccc(Cl)cc1C(=O)c1ccccc1
107 to 108 | O=S(=O)(NCCc1ccc(C(O)CCCO)cc1)c1ccc(Br)cc1 (stereo unspecified)
130 to 132 | CCCCc1nc2c(N)nc(C)c(C)c2n1CCOc1ccccc1
186 to 188 | Cc1c(F)cc(C(=O)O)c(Cl)c1[N+](=O)[O-]

SMILES | melting point [°C]
CP(=O)(CCl)C1CCCCC1 (stereo unspecified) | 51 to 53
Clc1cnc(N2CCNCC2)c(Cl)n1 | 89 to 97
CNC(=O)N1N=C(c2ccc([N+](=O)[O-])c(C)c2)c2cc3c(cc2C=C1C)OCO3 | 246 to 248
